Results reported in patent US20250346574A1, “PYRIDINYL SUBSTITUTED OXOISOINDOLINE COMPOUNDS FOR THE TREATMENT OF CANCER” (Bristol-Myers Squibb Company, priority 2021, published 2025).

Target: Helios (Homo sapiens, UniProt Q96SW2+Q9UKS7)
Assay: Helios Cellular Degradation Assay (Jurkat cells)
Format: cell-based
Set-up: fluorescently labelled antibodies against Helios, Ikaros and Aiolos; endogenous in cells; host or cells: Jurkat cells
Settings: incubated 72 h, Helios-PE antibody staining, flow cytometry, read-out: Helios Jurkat IC50
Method: Jurkat cells were plated at 80,000 cells/well in 40 μL RPMI+10% FBS in a 384 well cell culture plate prior to using acoustic dispensing technology for adding compound of interest. Cell cultures were incubated for 72 h at 37° C. and 5% CO2. In order to facilitate analysis, cell cultures were spun down at 200 rpm for 5 min and the supernatant was discarded. After shaking the plate to dislodge the cell pellet, cells were resuspended in 50 μL of Fixation Buffer (eBioScience FoxP3 buffer set 00-5523-00) for 60 min at room temperature. After centrifuging and discarding the supernatant, cells were permeabilized with 50 μL of Permeabilization buffer (eBioScience FoxP3 buffer set 00-5523-00) for 10 min at room temperature. Following permeabilization, cells were spun down and the supernatant was replaced with 20 μL fluorescently labelled antibodies against Helios, Ikaros and Aiolos or corresponding Isotype controls in 1× Permeabilization buffer (Ikaros-Alexa488 [Biolegend, Cat #368408, 1:50], Helios-PE [CST, Cat #29360, 1:50], Aiolos-Alexa647 [Biolegend, Cat #371106Biolegend, 1:25]) and staining reactions were incubated for 1 h at room temperature; protected from light. […] Stained cells were resuspended in 25 μL of flow cytometry staining buffer (PBS+0.2% BSA) and analyzed using an Intellicyt Ique Plus flow cytometer.

Helios, sequence (Q9UKS7 whole entry): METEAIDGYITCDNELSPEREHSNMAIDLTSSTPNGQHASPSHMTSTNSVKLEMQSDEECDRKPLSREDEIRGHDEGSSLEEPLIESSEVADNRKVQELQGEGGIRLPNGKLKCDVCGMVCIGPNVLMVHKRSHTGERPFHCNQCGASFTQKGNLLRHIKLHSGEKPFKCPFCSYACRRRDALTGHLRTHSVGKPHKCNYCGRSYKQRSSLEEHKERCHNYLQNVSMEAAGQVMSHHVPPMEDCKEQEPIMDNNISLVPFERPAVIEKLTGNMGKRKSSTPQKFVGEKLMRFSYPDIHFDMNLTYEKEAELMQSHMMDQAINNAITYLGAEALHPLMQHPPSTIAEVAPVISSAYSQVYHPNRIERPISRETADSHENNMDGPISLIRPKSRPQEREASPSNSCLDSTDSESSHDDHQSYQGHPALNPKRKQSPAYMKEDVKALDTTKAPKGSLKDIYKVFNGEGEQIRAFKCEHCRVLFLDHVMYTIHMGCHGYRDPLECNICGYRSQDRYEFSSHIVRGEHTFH
Helios, sequence (Q96SW2 whole entry): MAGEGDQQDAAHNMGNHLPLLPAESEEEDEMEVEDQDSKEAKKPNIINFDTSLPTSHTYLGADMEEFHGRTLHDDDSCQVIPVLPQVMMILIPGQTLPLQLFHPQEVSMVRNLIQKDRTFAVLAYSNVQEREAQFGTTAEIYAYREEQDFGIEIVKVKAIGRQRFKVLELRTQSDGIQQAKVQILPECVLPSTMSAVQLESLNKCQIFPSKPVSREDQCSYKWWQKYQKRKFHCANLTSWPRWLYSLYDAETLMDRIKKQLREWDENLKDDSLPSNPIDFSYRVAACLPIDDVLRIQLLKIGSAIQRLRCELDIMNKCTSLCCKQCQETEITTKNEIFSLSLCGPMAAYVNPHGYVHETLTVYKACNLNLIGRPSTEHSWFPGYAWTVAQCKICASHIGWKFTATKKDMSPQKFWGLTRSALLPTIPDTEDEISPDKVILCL
Helios, sequence (Q16531 whole entry partner): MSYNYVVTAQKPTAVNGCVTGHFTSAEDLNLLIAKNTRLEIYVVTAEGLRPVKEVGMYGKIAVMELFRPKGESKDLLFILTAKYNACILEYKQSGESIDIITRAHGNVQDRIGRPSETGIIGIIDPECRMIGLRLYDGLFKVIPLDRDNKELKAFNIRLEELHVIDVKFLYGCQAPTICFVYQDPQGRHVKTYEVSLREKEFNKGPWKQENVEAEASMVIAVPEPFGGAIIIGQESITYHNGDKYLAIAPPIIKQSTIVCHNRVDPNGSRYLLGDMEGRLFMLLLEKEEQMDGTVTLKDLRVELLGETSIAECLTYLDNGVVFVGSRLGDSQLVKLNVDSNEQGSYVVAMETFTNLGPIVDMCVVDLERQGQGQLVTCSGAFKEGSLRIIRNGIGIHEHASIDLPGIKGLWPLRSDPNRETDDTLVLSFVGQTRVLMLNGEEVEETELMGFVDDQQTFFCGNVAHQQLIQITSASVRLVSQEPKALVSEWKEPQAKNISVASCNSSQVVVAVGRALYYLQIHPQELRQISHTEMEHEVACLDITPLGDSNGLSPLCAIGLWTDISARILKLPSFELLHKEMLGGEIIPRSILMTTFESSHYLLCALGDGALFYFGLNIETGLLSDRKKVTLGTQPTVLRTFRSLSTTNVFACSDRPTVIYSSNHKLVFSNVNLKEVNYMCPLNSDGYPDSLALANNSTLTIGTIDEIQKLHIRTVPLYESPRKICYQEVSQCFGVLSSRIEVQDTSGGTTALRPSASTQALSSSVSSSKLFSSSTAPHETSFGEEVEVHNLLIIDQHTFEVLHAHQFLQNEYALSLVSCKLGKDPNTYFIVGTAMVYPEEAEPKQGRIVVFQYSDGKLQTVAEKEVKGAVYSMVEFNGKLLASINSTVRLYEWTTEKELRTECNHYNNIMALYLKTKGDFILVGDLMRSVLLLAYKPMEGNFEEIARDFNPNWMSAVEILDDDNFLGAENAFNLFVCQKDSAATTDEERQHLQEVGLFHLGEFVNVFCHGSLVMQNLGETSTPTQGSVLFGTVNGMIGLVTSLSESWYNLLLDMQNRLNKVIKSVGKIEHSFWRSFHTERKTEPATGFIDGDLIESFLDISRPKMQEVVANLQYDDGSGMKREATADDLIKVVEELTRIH

NC(=O)C1CCN1Cc1ccnc(-c2ccc3c(c2)CN(C2CCC(=O)NC2=O)C3=O)c1 (stereo not shown) [Example 79, 1-((2-(2-(2,6-dioxopiperidin-3-yl)-1-oxoisoindolin-5-yl)pyridin-4-yl)methyl) azetidine-2-carboxamide]
DC50: 736 nM
